Source: ChEMBL document CHEMBL1138986, “Novel bifunctional quinolonyl diketo acid derivatives as HIV-1 integrase inhibitors: design, synthesis, biological activities, and mechanism of action” (J Med Chem, 2006)

Legend:
[1] = target: T1, Human immunodeficiency virus type 1 integrase (Human immunodeficiency virus 1, UniProt Q7ZJM1); experiment: Inhibition of HIV1 integrase strand transfer activity in presence of MgCl2 by gel-based assay
U-937 [2] = experiment: Selectivity index (CC50/EC50); assay type: functional
[3] = target: T1, Human immunodeficiency virus type 1 integrase; experiment: Inhibition of HIV1 integrase 3'-processing activity in presence of MgCl2
[4] = test system: Human immunodeficiency virus 1; experiment: Antiviral activity against HIV1 3B; assay type: functional, organism-based; details: Human immunodeficiency virus 1, 3B
[5] = target: T1, Human immunodeficiency virus type 1 integrase; experiment: Inhibition of HIV1 integrase strand transfer activity in presence of MnCl2
U-937 [6] = experiment: Cytotoxicity against U937 cell line; assay type: functional; details: Homo sapiens
[7] = target: T1, Human immunodeficiency virus type 1 integrase; experiment: Inhibition of HIV1 integrase 3'-processing activity in presence of MnCl2
[8] = target: T1, Human immunodeficiency virus type 1 integrase; experiment: Inhibition of HIV1 integrase strand transfer activity in presence of MgCl2 by plate-based electrochemiluminescent assay

T1 sequence (Q7ZJM1 whole entry): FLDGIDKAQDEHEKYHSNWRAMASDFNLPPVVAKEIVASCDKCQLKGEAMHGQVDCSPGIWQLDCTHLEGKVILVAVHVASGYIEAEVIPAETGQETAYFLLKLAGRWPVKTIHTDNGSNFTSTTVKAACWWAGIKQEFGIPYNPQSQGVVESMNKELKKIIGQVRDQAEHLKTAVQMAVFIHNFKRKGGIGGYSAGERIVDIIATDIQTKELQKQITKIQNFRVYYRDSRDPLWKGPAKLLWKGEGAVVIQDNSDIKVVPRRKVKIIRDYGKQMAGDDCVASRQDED

Structure (SMILES)	IC50 [1] [µM]	Selectivity index (U-937 [2])	IC50 [3] [µM]	EC50 [4] [µM]	IC50 [5] [µM]	CC50 (U-937 [6]) [µM]	IC50 [7] [µM]	IC50 [8] [µM]
CCOC(=O)C(=O)/C=C(\O)c1ccc2c(c1)c(=O)c(/C(O)=C/C(=O)C(=O)OCC)cn2Cc1ccc(F)cc1	0.29	9.6	21	20	0.25	191	40	0.38
O=C(O)C(=O)/C=C(\O)c1ccc2c(c1)c(=O)c(/C(O)=C/C(=O)C(=O)O)cn2Cc1ccc(F)cc1	–	–	–	–	–	> 200	–	–
O=C(O)C(=O)/C=C(\O)c1ccc2ncc(/C(O)=C/C(=O)C(=O)O)c(O)c2c1	2.9	5.5	22	36.3	0.43	> 200	> 4.1	9.1
CCOC(=O)C(=O)/C=C(\O)c1ccc2ncc(/C(O)=C/C(=O)C(=O)OCC)c(O)c2c1	39	–	28	> 50	80	> 200	> 333	77
